Measured values published in PubChem BioAssay (NCI).
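Following 48 hours of exposure in 96-well plates, responses at five concentrations were used to interpolate endpoints linearly. GI50 marks 50% less growth. At the TGI there is no net growth.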

How the values were obtained:
Test in all cases: NCI anticancer screen, dose series, 48 h
HCT-116 colon = tested on: HCT-116 colon
SF-295 CNS = tested on: SF-295 CNS
UO-31 renal = tested on: UO-31 renal
SK-OV-3 ovarian = tested on: SK-OV-3 ovarian
HCT-15 colon = tested on: HCT-15 colon
SK-MEL-2 melanoma = tested on: SK-MEL-2 melanoma
786-0 renal = tested on: 786-0 renal
MALME-3M melanoma = tested on: MALME-3M melanoma
OVCAR-4 ovarian = tested on: OVCAR-4 ovarian
HL-60(TB) leukemia = tested on: HL-60(TB) leukemia
U251 CNS = tested on: U251 CNS
SK-MEL-28 melanoma = tested on: SK-MEL-28 melanoma
HCC-2998 colon = tested on: HCC-2998 colon
HOP-92 NSCLC = tested on: HOP-92 NSCLC
M14 melanoma = tested on: M14 melanoma
SF-539 CNS = tested on: SF-539 CNS
HS 578T breast = tested on: HS 578T breast
IGROV1 ovarian = tested on: IGROV1 ovarian
NCI-H460 lung = tested on: NCI-H460 lung
MDA-MB-435 = tested on: MDA-MB-435
UACC-257 melanoma = tested on: UACC-257 melanoma
ACHN renal = tested on: ACHN renal
MDA-MB-231 breast = tested on: MDA-MB-231 breast
RPMI-8226 leukemia = tested on: RPMI-8226 leukemia
CCRF-CEM leukemia = tested on: CCRF-CEM leukemia
SNB-19 CNS = tested on: SNB-19 CNS
EKVX NSCLC = tested on: EKVX NSCLC

Cc1ccc(N2CCN(C3=C(Cl)C(=O)c4ncccc4C3=O)CC2)cc1 showed a GI50 (HCT-116 colon) of 1.62 µM, a TGI (HCT-116 colon) of 2.97 µM and a GI50 (SF-295 CNS) of 2.12 µM. It also gave a TGI (SF-295 CNS) of 4.86 µM, a GI50 (UO-31 renal) of 1.53 µM and a TGI (UO-31 renal) of 3.11 µM. For the same molecule, the GI50 (SK-OV-3 ovarian) was 12.8 µM, the TGI (SK-OV-3 ovarian) was 25.8 µM and the GI50 (HCT-15 colon) was 1.54 µM. It also gave a TGI (HCT-15 colon) of 3.28 µM, a GI50 (SK-MEL-2 melanoma) of 2.11 µM and a TGI (SK-MEL-2 melanoma) of 4.48 µM. For the same molecule, the GI50 (786-0 renal) was 3.35 µM, the TGI (786-0 renal) was 10.2 µM and the GI50 (MALME-3M melanoma) was 1.77 µM. For the same molecule, the TGI (MALME-3M melanoma) was 3.34 µM, the GI50 (OVCAR-4 ovarian) was 1.68 µM and the TGI (OVCAR-4 ovarian) was 3.29 µM. The GI50 (HL-60(TB) leukemia) was 1.35 µM, the TGI (HL-60(TB) leukemia) was 3.87 µM and the GI50 (U251 CNS) was 1.79 µM. The TGI (U251 CNS) was 3.42 µM, the GI50 (SK-MEL-28 melanoma) was 2.35 µM and the TGI (SK-MEL-28 melanoma) was 5.25 µM. For the same molecule, the GI50 (HCC-2998 colon) was 1.77 µM, the TGI (HCC-2998 colon) was 3.38 µM and the GI50 (HOP-92 NSCLC) was 1.63 µM. For the same molecule, the TGI (HOP-92 NSCLC) was 3.17 µM, the GI50 (M14 melanoma) was 1.84 µM and the TGI (M14 melanoma) was 3.69 µM. It also gave a GI50 (SF-539 CNS) of 1.85 µM, a TGI (SF-539 CNS) of 3.5 µM and a GI50 (HS 578T breast) of 3.64 µM. The TGI (HS 578T breast) was 34.5 µM, the GI50 (IGROV1 ovarian) was 1.74 µM and the TGI (IGROV1 ovarian) was 3.21 µM. The GI50 (NCI-H460 lung) was 4.49 µM, the TGI (NCI-H460 lung) was 22.6 µM and the GI50 (MDA-MB-435) was 1.91 µM. The TGI (MDA-MB-435) was 3.51 µM, the GI50 (UACC-257 melanoma) was 1.75 µM and the TGI (UACC-257 melanoma) was 3.3 µM. The GI50 (ACHN renal) was 1.61 µM, the TGI (ACHN renal) was 2.96 µM and the GI50 (MDA-MB-231 breast) was 1.59 µM. For the same molecule, the TGI (MDA-MB-231 breast) was 3.09 µM, the GI50 (RPMI-8226 leukemia) was 2.14 µM and the TGI (RPMI-8226 leukemia) was 5.79 µM. It also gave a GI50 (CCRF-CEM leukemia) of 2.21 µM, a TGI (CCRF-CEM leukemia) of 7.09 µM and a GI50 (SNB-19 CNS) of 13.4 µM. For the same molecule, the TGI (SNB-19 CNS) was 26.4 µM, the GI50 (EKVX NSCLC) was 1.73 µM and the TGI (EKVX NSCLC) was 3.14 µM.
